Counter-ions that a name gives are not always drawn. Like-named read-outs stand apart in the source and are kept apart here.
What was measured:
[1] = tested on: NCI-H460, human non-small cell lung carcinoma cells; experiment: Proliferation assay, NCI-H460 (crystal violet); type: cell-based; settings: NCI-H460, 4 days, read-out: Inhibition of NCI-H460 cell proliferation IC50
Method: (§1) Cultivated tumour cells (HeLa, human cervical tumour cells, ATCC CCL-2; NCI-H460, human non-small cell lung carcinoma cells, ATCC HTB-177; A2780, human ovarian carcinoma cells, ECACC #93112519; DU 145, hormone-independent human prostate carcinoma cells, ATCC HTB-81; HeLa-MaTu-ADR, multidrug-resistant human cervical carcinoma cells, EPO-GmbH Berlin; Caco-2, human colorectal carcinoma cells, ATCC HTB-37; B16F10, mouse melanoma cells, ATCC CRL-6475) were plated at a density of 5,000 cells/well (DU145, HeLa-MaTu-ADR), 3,000 cells/well (NCI-H460, HeLa), 2,500 cells/well (A2780), 1,500 cells/well (Caco-2), or 1,000 cells/well (B16F10) in a 96-well multititer plate in 200 μL of their respective growth medium supplemented 10% fetal calf serum. After 24 hours, the cells of one plate (zero-point plate) were stained with crystal violet (see below), while the medium of the other plates was replaced by fresh culture medium (200 μl), to which the test substances were added in various concentrations (0 μM, as well as in the range of 0.001-10 μM; the final concentration of the solvent dimethyl sulfoxide was 0.5%). The cells were incubated for 4 days in the presence of test substances. Cell proliferation was determined by staining the cells with crystal violet: the cells were fixed by adding 20 μl/measuring point of an 11% glutaric aldehyde solution for 15 minutes at room temperature. After three washing cycles of the fixed cells with water, the plates were dried at room temperature. The cells were stained by adding 100 μl/measuring point of a 0.1% crystal violet solution (pH 3.0). After three washing cycles of the stained cells with water, the plates were dried at room temperature. The dye was dissolved by adding 100 μl/measuring point of a 10% acetic acid solution. The extinction was determined by photometry at a wavelength of 595 nm. The change of cell number, in percent, was calculated by normalization of the measured values to the extinction values of the zero-point plate (=0%) and the extinction of the untreated (0 μm) cells (=100%). The IC50 values (inhibitory concentration at 50% of maximal effect) were determined by means of a 4 parameter fit. Non-adherent MOLM-13 human acute myeloid leukemia cells (DSMZ ACC 554) were seeded at a density of 5,000 cells/well in a 96-well multititer plate in 100 μL of growth medium supplemented 10% fetal calf serum. After 24 hours, cell viability of one plate (zero-point plate) was determined with the Cell Titre-Glo Luminescent Cell Viability Assay (Promega), while 50 μL of test compound containing medium was added to the wells of the other plates (final concentrations in the range of 0.001-10 μM and DMSO controls; the final concentration of the solvent dimethyl sulfoxide was 0.5%). Cell viability was assessed after 72-hour exposure with the Cell Titre-Glo Luminescent Cell Viability Assay (Promega).

[2] = tested on: DU 145, hormone-independent human prostate carcinoma cells; experiment: Proliferation assay, DU145 (crystal violet); type: cell-based; settings: DU145, 4 days, read-out: Inhibition of DU145 cell proliferation IC50
Method: as §1

[3] = biological target: T1, CDK9/CycT1 (Homo sapiens, UniProt P50750); experiment: CDK9/CycT1 kinase assay (TR-FRET, 10 μM ATP); type: biochemical; settings: Method 1a
T1 construct: Recombinant full-length His-tagged human CDK9 and CycT1; His; purchased Invitrogen PV4131; host or cells: insect cells
T1 sequence (P50750 whole entry): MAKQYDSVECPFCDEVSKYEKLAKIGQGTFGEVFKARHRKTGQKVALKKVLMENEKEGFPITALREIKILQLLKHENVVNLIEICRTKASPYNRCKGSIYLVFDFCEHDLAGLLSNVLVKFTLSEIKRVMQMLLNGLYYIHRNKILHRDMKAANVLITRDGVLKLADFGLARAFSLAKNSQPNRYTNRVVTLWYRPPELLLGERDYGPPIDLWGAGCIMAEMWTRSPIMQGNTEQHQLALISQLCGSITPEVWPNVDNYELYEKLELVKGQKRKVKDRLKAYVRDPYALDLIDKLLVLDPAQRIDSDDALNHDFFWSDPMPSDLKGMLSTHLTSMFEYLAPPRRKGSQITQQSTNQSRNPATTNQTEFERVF
T1 sequence (O60563 whole entry partner): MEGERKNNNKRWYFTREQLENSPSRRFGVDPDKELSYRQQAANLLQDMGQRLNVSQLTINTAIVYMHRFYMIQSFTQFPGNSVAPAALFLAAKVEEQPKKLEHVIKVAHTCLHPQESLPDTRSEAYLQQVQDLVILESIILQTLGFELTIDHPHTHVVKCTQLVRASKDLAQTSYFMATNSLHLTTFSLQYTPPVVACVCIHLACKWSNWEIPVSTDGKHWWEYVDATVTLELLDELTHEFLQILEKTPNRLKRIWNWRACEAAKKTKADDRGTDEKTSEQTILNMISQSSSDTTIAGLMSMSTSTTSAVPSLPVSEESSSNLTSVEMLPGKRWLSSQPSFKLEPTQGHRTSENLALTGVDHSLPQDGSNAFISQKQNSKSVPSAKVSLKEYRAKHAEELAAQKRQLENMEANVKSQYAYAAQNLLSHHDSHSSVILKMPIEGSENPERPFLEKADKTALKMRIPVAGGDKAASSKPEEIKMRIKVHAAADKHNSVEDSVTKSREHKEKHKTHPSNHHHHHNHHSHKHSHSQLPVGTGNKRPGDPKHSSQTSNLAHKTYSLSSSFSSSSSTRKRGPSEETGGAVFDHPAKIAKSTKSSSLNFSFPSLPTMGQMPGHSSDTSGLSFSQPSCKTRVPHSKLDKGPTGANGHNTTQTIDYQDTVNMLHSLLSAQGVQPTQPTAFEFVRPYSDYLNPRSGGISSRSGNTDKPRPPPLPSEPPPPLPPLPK
Excerpt: 1a. CDK9/CyeT1 Kinase Assay:
CDK9/CycT1-inhibitory activity of compounds of the present invention was quantified employing the CDK9/CycT1 TR-FRET assay as described in the following paragraphs:
Recombinant full-length His-tagged human CDK9 and CycT1, expressed in insect cells and purified by Ni-NTA affinity chromatography, were purchased from Invitrogen (Cat. No PV4131). As substrate for the kinase reaction biotinylated peptide biotin-Ttds-[…] (C-terminus in amid form) was used which can be purchased e.g. form the company JERINI Peptide Technologies (Berlin, Germany). For the assay 50 nl of a 100 fold concentrated solution of the test compound in DMSO was pipetted into a black low volume 384 well microtiter plate (Greiner Bio-One, Frickenhausen, Germany), 2 μl of a solution of CDK9/CycT1 in aqueous assay buffer [50 mM Tris/HCl pH 8.0, 10 mM MgCl2, 1.0 mM dithiothreitol, 0.1 mM sodium ortho-vanadate, 0.01% (v/v) Nonidet-P40 (Sigma)] were added and the mixture was incubated for 15 min at 22° C. to allow pre-binding of the test compounds to the enzyme before the start of the kinase reaction.
The resulting mixture was incubated 1 h at 22° C. to allow the formation of complex between the phosphorylated biotinylated peptide and the detection reagents. Subsequently the amount of phosphorylated substrate was evaluated by measurement of the resonance energy transfer from the Eu-chelate to the streptavidine-XL.

IC50 ([1]; Homo sapiens, NCI-H460, 96 h) | IC50 ([2]; Homo sapiens, DU-145, 96 h) | IC50 [3] | IC50 [1] | IC50 [2] | Structure (SMILES)
110 nM | 110 nM | 1 nM |  |  | COc1cc(F)ccc1-c1cc(Nc2cc(CS(C)(=O)=NC(C)=O)ccn2)ncc1F (racemic) [Example 13, (rac)-N-{[(2-{[5-Fluoro-4-(4-fluoro-2-methoxyphenyl)pyridin-2-yl]amino}pyridin-4-yl)methyl](methyl)oxido-λ^6-sulfanylidene}acetamide]
 |  | 3 nM |  |  | COc1cc(F)ccc1-c1cc(Nc2cc(CS(C)(=N)=O)cc(C(F)F)n2)ncc1F (racemic) [Example 31, (rac)-N-{6-(Difluoromethyl)-4-[(S-methylsulfonimidoyl)methyl]pyridin-2-yl}-5-fluoro-4-(4-fluoro-2-methoxyphenyl)pyridin-2-amine]
 | 38 nM |  | 100 nM |  | COc1cc(F)ccc1-c1cc(Nc2cc(CS(C)(=N)=O)cc(C)n2)ncc1F (single isomer, unassigned; (+)) [Example 32, (+)-5-Fluoro-4-(4-fluoro-2-methoxyphenyl)-N-{6-methyl-4-[(S-methylsulfonimidoyl)methyl]pyridin-2-yl}pyridin-2-amine]
 |  |  | 35 nM | 34 nM | COc1cc(F)ccc1-c1cc(Nc2cc(CS(C)(=N)=O)cc(C(F)(F)F)n2)ncc1F (single isomer, unassigned; (-)) [Example 23, (−)-5-Fluoro-4-(4-fluoro-2-methoxyphenyl)-N-{4-[(S-methylsulfonimidoyl)methyl]-6-(trifluoromethyl)pyridin-2-yl}pyridin-2-amine]
 |  |  | 30 nM | 31 nM | COc1cc(F)ccc1-c1cc(Nc2cc(CS(C)(=N)=O)cc(C)n2)ncc1F (single isomer, unassigned; (-)) [Example 33, (−)-5-Fluoro-4-(4-fluoro-2-methoxyphenyl)-N-{6-methyl-4-[(S-methylsulfonimidoyl)methyl]pyridin-2-yl}pyridin-2-amine]
 |  |  | 130 nM | 120 nM | COc1cc(F)ccc1-c1cc(Nc2cc(CS(C)(=N)=O)ccn2)ncc1F (single isomer, unassigned; enantiomer 1) [Example 16, 5-Fluoro-4-(4-fluoro-2-methoxyphenyl)-N-{4-[(S-methylsulfonimidoyl)methyl]pyridin-2-yl}pyridin-2-amine hydrochloride; enantiomer 1]
 |  |  | 30 nM | 33 nM | COc1cc(F)ccc1-c1cc(Nc2cc(CS(C)(=N)=O)ccn2)ncc1F.Cl (single isomer, unassigned; enantiomer 2) [Example 14, 5-Fluoro-4-(4-fluoro-2-methoxyphenyl)-N-{4-[(S-methylsulfonimidoyl)methyl]pyridin-2-yl}pyridin-2-amine hydrochloride; enantiomer 2]

The remaining lines, values behind:

Structure (SMILES) | IC50 ([1]; Homo sapiens, NCI-H460, 96 h) | IC50 ([2]; Homo sapiens, DU-145, 96 h) | IC50 [3] | IC50 [1] | IC50 [2]
COc1cc(F)ccc1-c1cc(Nc2cc(CS(C)(=N)=O)ccn2)ncc1F (racemic) [Example 1, (rac)-5-Fluoro-4-(4-fluoro-2-methoxyphenyl)-N-{4-[(S-methylsulfonimidoyl)methyl]pyridin-2-yl}pyridin-2-amine] | 62 nM | 37 nM |  |  | 
COc1cc(F)ccc1-c1cc(Nc2cc(CS(C)(=N)=O)cc(C)n2)ncc1F (racemic) [Example 4, (rac)-5-Fluoro-4-(4-fluoro-2-methoxyphenyl)-N-{6-methyl-4-[(S-methylsulfonimidoyl)methyl]pyridin-2-yl}pyridin-2-amine] | 97 nM | 67 nM | 4 nM |  | 
COc1cc(F)ccc1-c1cc(Nc2cc(CS(C)(=N)=O)c(Br)c(C)n2)ncc1F (racemic) [Example 5, (rac)-5-Bromo-N-[5-fluoro-4-(4-fluoro-2-methoxyphenyl)pyridin-2-yl]-6-methyl-4-[(S-methylsulfonimidoyl)methyl]pyridin-2-amine] | 120 nM | 110 nM | 5 nM |  | 
COc1cc(CS(C)(=N)=O)cc(Nc2cc(-c3ccc(F)cc3OC)c(F)cn2)n1 (racemic) [Example 6, (rac)-5-Fluoro-4-(4-fluoro-2-methoxyphenyl)-N-{6-methoxy-4-[(S-methylsulfonimidoyl)methyl]pyridin-2-yl}pyridin-2-amine] | 33 nM | 30 nM | 2 nM |  | 
COc1cc(F)ccc1-c1cc(Nc2cc(CS(C)(=N)=O)cc(Cl)n2)ncc1F (racemic) [Example 7, (rac)-N-{6-Chloro-4-[(S-methylsulfonimidoyl)methyl]pyridin-2-yl}-5-fluoro-4-(4-fluoro-2-methoxyphenyl)pyridin-2-amine] | 47 nM | 37 nM | 2 nM |  | 
COc1cc(F)ccc1-c1cc(Nc2cc(CS(=N)(=O)CCO)ccn2)ncc1F (racemic) [Example 8, (rac)-2-{S-[(2-{[5-Fluoro-4-(4-fluoro-2-methoxyphenyl)pyridin-2-yl]amino}pyridin-4-yl)methyl]sulfonimidoyl}ethanol] | 290 nM | 110 nM | 13 nM |  | 
COc1cc(F)ccc1-c1cc(Nc2cc(CS(=N)(=O)CCN)ccn2)ncc1F (racemic) [Example 9, (rac)-N-(4-{[S-(2-Aminoethyl)sulfonimidoyl]methyl}pyridin-2-yl)-5-fluoro-4-(4-fluoro-2-methoxyphenyl)pyridin-2-amine] |  |  | 8 nM |  | 
CCOC(=O)N=S(C)(=O)Cc1ccnc(Nc2cc(-c3ccc(F)cc3OC)c(F)cn2)c1 (racemic) [Example 11, (rac)-Ethyl{[(2-{[5-fluoro-4-(4-fluoro-2-methoxyphenyl)pyridin-2-yl]amino}pyridin-4-yl)methyl](methyl)oxido-λ^6-sulfanylidene}carbamate] | 110 nM | 110 nM | 1 nM |  | 
CCNC(=O)N=S(C)(=O)Cc1ccnc(Nc2cc(-c3ccc(F)cc3OC)c(F)cn2)c1 (racemic) [Example 12, (rac)-1-Ethyl-3-{[(2-{[5-fluoro-4-(4-fluoro-2-methoxyphenyl)pyridin-2-yl]amino}pyridin-4-yl)methyl](methyl)oxido-λ^6-sulfanylidene}urea] | 100 nM | 77 nM | 2 nM |  | 
COc1cc(F)ccc1-c1cc(Nc2cc(CS(C)(=N)=O)ccn2)ncc1F (single isomer, unassigned; (+)) [Example 2, (+)-5-Fluoro-4-(4-fluoro-2-methoxyphenyl)-N-{4-[(S-methylsulfonimidoyl)methyl]pyridin-2-yl}pyridin-2-amine] |  |  |  | 75 nM | 33 nM
COc1cc(F)ccc1-c1cc(Nc2cc(CS(C)(=N)=O)ccn2)ncc1F (single isomer, unassigned; (-)) [Example 3, (−)-5-Fluoro-4-(4-fluoro-2-methoxyphenyl)-N-{4-[(S-methylsulfonimidoyl)methyl]pyridin-2-yl}pyridin-2-amine] |  |  |  | 65 nM | 37 nM

Source: patent US9650340B2, “5-fluoro-N-(pyridin-2-yl)pyridin-2-amine derivatives containing a sulfoximine group” (BAYER PHARMA AKTIENGESELLSCHAFT, priority 2012, dated 2017)
